Reference: the NIST ThermoML archive (doi:10.1021/je201014c)

Experiment: mn = molality of the nth substance listed, in mol/kg
Conditions: 100 kPa, Liquid, Alternating current cell with electrodes

CCCCn1cc[n+](C)c1.F[B-](F)(F)F [1-butyl-3-methylimidazolium tetrafluoroborate] + CN(C)C=O
Conditions	molar conductivity [S·m2/mol]
283.15 K, m1 = 5.542e-05	0.007204
283.15 K, m1 = 0.0002915	0.00709
283.15 K, m1 = 0.0004895	0.007031
283.15 K, m1 = 0.0006942	0.006981
283.15 K, m1 = 0.001153	0.006893
283.15 K, m1 = 0.001938	0.006777
283.15 K, m1 = 0.002927	0.006662
283.15 K, m1 = 0.003888	0.00657
283.15 K, m1 = 0.005903	0.006415
283.15 K, m1 = 0.008004	0.006288
283.15 K, m1 = 0.009964	0.006189
283.15 K, m1 = 0.012	0.0061
283.15 K, m1 = 0.01485	0.00599
288.15 K, m1 = 0.0001289	0.007713
288.15 K, m1 = 0.0002628	0.007644
288.15 K, m1 = 0.000427	0.007581
288.15 K, m1 = 0.0006069	0.007526
288.15 K, m1 = 0.001022	0.007427
288.15 K, m1 = 0.001697	0.007306
288.15 K, m1 = 0.002546	0.007188
288.15 K, m1 = 0.003454	0.007086
288.15 K, m1 = 0.005179	0.006929
288.15 K, m1 = 0.007043	0.006794
288.15 K, m1 = 0.008772	0.006689
288.15 K, m1 = 0.01186	0.006533
288.15 K, m1 = 0.01492	0.006408
293.15 K, m1 = 0.000111	0.00828
293.15 K, m1 = 0.0002943	0.008172
293.15 K, m1 = 0.0004483	0.008108
293.15 K, m1 = 0.000694	0.008027
293.15 K, m1 = 0.001218	0.007899
293.15 K, m1 = 0.001996	0.007759
293.15 K, m1 = 0.002935	0.007628
293.15 K, m1 = 0.003937	0.007515
293.15 K, m1 = 0.005916	0.007336
293.15 K, m1 = 0.007933	0.00719
293.15 K, m1 = 0.01009	0.007059
293.15 K, m1 = 0.01201	0.00696
293.15 K, m1 = 0.01495	0.006833
298.15 K, m1 = 0.0001246	0.008822
298.15 K, m1 = 0.0003199	0.0087
298.15 K, m1 = 0.000527	0.008612
298.15 K, m1 = 0.000691	0.008555
298.15 K, m1 = 0.001175	0.008424
298.15 K, m1 = 0.001926	0.008273
298.15 K, m1 = 0.002929	0.008121
298.15 K, m1 = 0.003956	0.007996
298.15 K, m1 = 0.005953	0.007802
298.15 K, m1 = 0.008044	0.00764
298.15 K, m1 = 0.009999	0.007512
298.15 K, m1 = 0.01205	0.007397
298.15 K, m1 = 0.0149	0.007265
303.15 K, m1 = 0.0001037	0.00939
303.15 K, m1 = 0.0002814	0.009262
303.15 K, m1 = 0.000494	0.00916
303.15 K, m1 = 0.0007407	0.009069
303.15 K, m1 = 0.001192	0.00894
303.15 K, m1 = 0.001886	0.00879
303.15 K, m1 = 0.002913	0.008621
303.15 K, m1 = 0.003912	0.008489
303.15 K, m1 = 0.006107	0.008261
303.15 K, m1 = 0.007974	0.008107
303.15 K, m1 = 0.009993	0.007966
303.15 K, m1 = 0.01195	0.007849
303.15 K, m1 = 0.01492	0.007699
308.15 K, m1 = 5.763e-05	0.009991
308.15 K, m1 = 0.0002447	0.009826
308.15 K, m1 = 0.0004495	0.009716
308.15 K, m1 = 0.0006821	0.009621
308.15 K, m1 = 0.001183	0.009467
308.15 K, m1 = 0.001933	0.009295
308.15 K, m1 = 0.002911	0.009124
308.15 K, m1 = 0.003919	0.008981
308.15 K, m1 = 0.005927	0.008756
308.15 K, m1 = 0.008008	0.008573
308.15 K, m1 = 0.009997	0.008426
308.15 K, m1 = 0.01201	0.008298
308.15 K, m1 = 0.0149	0.00814
313.15 K, m1 = 9.063e-05	0.0105
313.15 K, m1 = 0.0002952	0.01034
313.15 K, m1 = 0.0004868	0.01024
313.15 K, m1 = 0.0007015	0.01015
313.15 K, m1 = 0.001177	0.009997
313.15 K, m1 = 0.001951	0.009811
313.15 K, m1 = 0.002946	0.009626
313.15 K, m1 = 0.003906	0.009482
313.15 K, m1 = 0.005912	0.009242
313.15 K, m1 = 0.007925	0.009053
313.15 K, m1 = 0.00996	0.008895
313.15 K, m1 = 0.01199	0.008759
313.15 K, m1 = 0.01511	0.008574
318.15 K, m1 = 9.401e-05	0.01103
318.15 K, m1 = 0.0002791	0.01089
318.15 K, m1 = 0.0004526	0.01079
318.15 K, m1 = 0.0006468	0.01071
318.15 K, m1 = 0.001144	0.01054
318.15 K, m1 = 0.001896	0.01035
318.15 K, m1 = 0.0029	0.01015
318.15 K, m1 = 0.003892	0.009988
318.15 K, m1 = 0.005917	0.00973
318.15 K, m1 = 0.00798	0.009527
318.15 K, m1 = 0.009945	0.009368
318.15 K, m1 = 0.01195	0.009227
318.15 K, m1 = 0.01488	0.009038
